Results as given in US9216163B2, “Method of inhibiting angiogenesis” (KYORIN PHARMACEUTICAL CO., LTD, priority 2013, dated 2015).

Experiments:
[1] = system: HUVEC; experiment: VEGF-induced cell growth of HUVEC (Cell Counting Kit-8); type: cell-based, human; conditions: VEGF 30 ng/mL
Description: An effect of L-carbocisteine against cell growth promotion by VEGF was evaluated in vitro using HUVEC. HUVEC were inoculated at 2,500 cells/well in a 96-well microplate, and cultured for 24 hours. Subsequently, the HUVEC were cultured in a medium without VEGF and bFGF overnight under a starvation condition. The HUVEC were pretreated with L-carbocisteine (10, 50, 100, and 200 μM) for 15 minutes, and then stimulated by VEGF (30 ng/mL). The number of living cells after 48 hours was determined by Cell Counting Kit-8 (manufactured by DOJINDO LABORATORIES) (n=6). 2) Results

[2] = system: HUVEC; experiment: VEGF-induced cell migration of HUVEC; type: cell-based, human; conditions: 100 μM pretreatment 15 minutes, VEGF 30 ng/mL, after 12 hours
Description: An effect of L-carbocisteine against cell migration promoted by VEGF was evaluated in vitro using HUVEC. HUVEC were inoculated in a plate, and cultured until confluent. Subsequently, the HUVEC were cultured in a medium without VEGF and bFGF overnight under starvation condition. The HUVEC were pretreated with L-carbocisteine (100 μM) for 15 minutes. The cells (HUVEC) on the plate were peeled at certain intervals. The cells remaining on the plate were stimulated by VEGF (30 ng/mL). After 12 hours, the distance of cell migration was measured (n=4).

[3] = system: VEGF-induced angiogenesis formed in Matrigel; experiment: VEGF-induced angiogenesis in Matrigel, in vivo mouse model (Evans blue); conditions: male C57BL/6J mouse, 5 μg/g B.W. intraperitoneal twice daily for 14 days
Description: An effect of L-carbocisteine against angiogenesis promoted by VEGF was evaluated in an in vivo mouse model. A male C57BL/6J mouse (6 weeks) was anesthetized with pentobarbital. Subsequently, 500 μL of BD™ matrix containing 30 ng/mL VEGF was subcutaneously injected into the side of the mouse using a 27-G needle. L-carbocisteine (5 μg per g of body weight of the mouse) or physiologic saline (the same volume) was intraperitoneally administered twice a day, morning and evening, for 14 days. After completion of the administration for 14 days, Evans blue was administered to the mouse via the orbital vein plexus. The mouse was sufficiently perfused with EDTA, and anesthetized with pentobarbital. The matrigel was taken out from the body of the mouse. The weight of taken matrigel was measured, and the matrigel was immersed in a formamide solution and allowed to stand at 37° C. for 48 hours. Following elution of Evans blue in the formamide solution, the weight of eluted Evans blue per unit weight of the matrigel was measured using an absorbance of 620 nm (n=8).

[4] = system: HUVEC; experiment: VEGF-induced tube formation of HUVEC in collagen; type: cell-based, human; conditions: 100 μM pretreatment 15 minutes, VEGF 30 ng/mL, after 24 hours
Description: An effect of L-carbocisteine against tube formation promoted by VEGF was evaluated in vitro using HUVEC. A collagen Type 1-C (available from Nitta Gelatin Inc.) lower layer was formed on a 12-well plate, HUVEC were inoculated on the lower layer, and a collagen upper layer was then formed. The HUVEC were pretreated with L-carbocisteine (100 μM) for 15 minutes, and stimulated by VEGF (30 ng/mL). The overall length of the lumen after 24 hours was measured (n=6).

[5] = system: c-Jun N-terminal kinase (JNK); experiment: VEGF-induced phosphorylation of JNK in HUVEC (Western blot); type: cell-based, human; conditions: 100 μM pretreatment 15 minutes, VEGF 30 ng/mL for 5 or 15 minutes
Description: (§1) An effect of L-carbocisteine against phosphorylation of Akt, Erk1/2, c-Jun N-terminal kinase (JNK), and p38 MAP kinase accelerated by VEGF stimulation was evaluated using HUVEC. HUVEC were inoculated, and cultured in an EBM-2 medium containing 0.1% FBS overnight under starvation condition. The HUVEC were pretreated with L-carbocisteine (100 μM) for 15 minutes, and stimulated by VEGF (30 ng/mL) for 5 or 15 minutes. Phosphorylation accelerated by VEGF stimulation was evaluated using phosphor-specific antibodies against various kinases by a Western blot method. The level of kinase protein expression was investigated using each antibody after detection of phosphorylation.

[6] = system: p38 MAP kinase; experiment: VEGF-induced phosphorylation of p38 MAP kinase in HUVEC (Western blot); type: cell-based, human; conditions: 100 μM pretreatment 15 minutes, VEGF 30 ng/mL for 5 or 15 minutes
Description: as §1

[7] = system: Erk1/2; experiment: VEGF-induced phosphorylation of Erk1/2 in HUVEC (Western blot); type: cell-based, human; conditions: 100 μM pretreatment 15 minutes, VEGF 30 ng/mL for 5 or 15 minutes
Description: as §1

[8] = system: Akt; experiment: VEGF-induced phosphorylation of Akt in HUVEC (Western blot); type: cell-based, human; conditions: 100 μM pretreatment 15 minutes, VEGF 30 ng/mL for 5 or 15 minutes
Description: as §1

## N[C@@H](CSCC(=O)O)C(=O)O [L-carbocisteine, S-(carboxymethyl)-L-cysteine]
[1]; 10, 50, 100 and 200 μM, 48 hours
  growth suppressive effect, concentration dependence: concentration-dependent
[1]; pretreatment with 100 μM or more for 15 minutes, living cells after 48 hours
  endothelial cell growth promoted by VEGF: significantly suppressed
[2]
  migration promoted by VEGF (distance of cell migration): significantly suppressed
[3]
  vascular density in the matrigel: markedly decreased
[4]
  tube formation promoted by VEGF (overall length of the lumen): significantly suppressed
[5]
  accelerated phosphorylation of JNK: only accelerated phosphorylation of Erk1/2 was specifically suppressed
[6]
  accelerated phosphorylation of p38 MAP kinase: only accelerated phosphorylation of Erk1/2 was specifically suppressed
[7]
  accelerated phosphorylation of Erk1/2: specifically suppressed
[8]
  accelerated phosphorylation of Akt: only accelerated phosphorylation of Erk1/2 was specifically suppressed
